Measured values taken from patent US9980943B2, “Methods of treating muscular dystrophy” (BOARD OF REGENTS OF THE NEVADA SYSTEM OF HIGHER EDUCATION, …, priority 2013, dated 2018).

Experiments:
Type in all cases: cell-based, mouse
[1] = test system: α7 integrin (LacZ reporter in α7+/LacZ myotubes); assay: Myotube α7 integrin FDG assay (Burkin assay in myotubes, 96-well); settings: for Burkin Assay in Myotubes, value relative to DMSO: SU9516 analogs, 96-well, N=3-6
[2] = test system: β-galactosidase in CMV-LacZ C2C12 myotubes; assay: CMV-LacZ secondary screen in C2C12 myotubes (β-Gal stabilizing assay); settings: for CMV-LACZ in Myotubes, value relative to DMSO: SU9516 analogs, C2C12 CMV-LacZ, N=2; for CMV-LACZ in Myotubes, signal relative to DMSO: C2C12 CMV-LacZ myotubes, fold relative to DMSO
Method in brief: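 β-Gal level was the read-out, measured in a clonal C2C12 line expressing LacZ from a CMV promoter. Dose-response curves used six concentrations, 0.5 μM up to 40 μM, with duplicate points.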

[3] = test system: β-galactosidase in CMV-LacZ C2C12 myoblasts; assay: CMV-LacZ secondary screen in C2C12 myoblasts (β-Gal stabilizing assay); settings: for CMV-LACZ in Myoblasts, value relative to DMSO: SU9516 analogs, C2C12 CMV-LacZ, N=2; for CMV-LACZ in Myoblasts (β-galactosidase activity relative to DMSO): CMV-LacZ C2C12 myoblasts
Method in brief: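 Dose-response runs at 0.5–40 μM (0.5, 1, 5, 10, 20, 40 μM; N=2 per point) used a clonal C2C12 line carrying CMV-LacZ. Cells were assayed as myoblasts or as differentiated myotubes, and β-galactosidase levels were read with the FDG fluorogenic substrate.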

[4] = test system: α7 integrin (LacZ reporter in α7βgal+/− myoblasts); assay: Myoblast α7+/LacZ integrin FDG assay (Burkin assay in myoblasts, 96-well); settings: 96-well; for Burkin Assay in Myoblasts, value relative to DMSO: SU9516 analogs, N=3-6; for Burkin Assay in Myoblasts, signal relative to DMSO: α7+/LacZ myoblasts

## Cc1ccc2c(c1)/C(=C/c1ccccc1)C(=O)N2 [MLS001202354-01]
[1]; 0.5 uM
  Burkin Assay in Myotubes, value relative to DMSO: 0.8459
[1]; 1 uM
  Burkin Assay in Myotubes, value relative to DMSO: 0.9022
[1]; 5 uM
  Burkin Assay in Myotubes, value relative to DMSO: 0.9545
[1]; 10 uM
  Burkin Assay in Myotubes, value relative to DMSO: 1.069
[1]; 20 uM
  Burkin Assay in Myotubes, value relative to DMSO: 0.5824
[1]; 40 uM
  Burkin Assay in Myotubes, value relative to DMSO: 0.5785
[2]; 0.5 uM
  CMV-LACZ in Myotubes, value relative to DMSO: 1.0676
[2]; 1 uM
  CMV-LACZ in Myotubes, value relative to DMSO: 0.9200
[2]; 5 uM
  CMV-LACZ in Myotubes, value relative to DMSO: 0.8910
[2]; 10 uM
  CMV-LACZ in Myotubes, value relative to DMSO: 1.0340
[2]; 20 uM
  CMV-LACZ in Myotubes, value relative to DMSO: 0.7000
[2]; 40 uM
  CMV-LACZ in Myotubes, value relative to DMSO: 0.7863
[3]; 0.5 uM
  CMV-LACZ in Myoblasts, value relative to DMSO: 1.2275
[3]; 1 uM
  CMV-LACZ in Myoblasts, value relative to DMSO: 0.9521
[3]; 5 uM
  CMV-LACZ in Myoblasts, value relative to DMSO: 0.9669
[3]; 10 uM
  CMV-LACZ in Myoblasts, value relative to DMSO: 0.9170
[3]; 20 uM
  CMV-LACZ in Myoblasts, value relative to DMSO: 0.8378
[3]; 40 uM
  CMV-LACZ in Myoblasts, value relative to DMSO: 0.7437
[4]; 0.5 uM
  Burkin Assay in Myoblasts, value relative to DMSO: 1.077
[4]; 1 uM
  Burkin Assay in Myoblasts, value relative to DMSO: 1.023
[4]; 5 uM
  Burkin Assay in Myoblasts, value relative to DMSO: 1.036
[4]; 10 uM
  Burkin Assay in Myoblasts, value relative to DMSO: 1.073
[4]; 20 uM
  Burkin Assay in Myoblasts, value relative to DMSO: 0.516
[4]; 40 uM
  Burkin Assay in Myoblasts, value relative to DMSO: 0.4275

## Cc1ccc2c(c1)/C(=C/c1ccc(F)cc1)C(=O)N2 [MLS001202366-01]
[1]; 0.5 uM
  Burkin Assay in Myotubes, value relative to DMSO: 1.114
[1]; 1 uM
  Burkin Assay in Myotubes, value relative to DMSO: 1.099
[1]; 5 uM
  Burkin Assay in Myotubes, value relative to DMSO: 1.089
[1]; 10 uM
  Burkin Assay in Myotubes, value relative to DMSO: 0.9194
[1]; 20 uM
  Burkin Assay in Myotubes, value relative to DMSO: 0.5272
[1]; 40 uM
  Burkin Assay in Myotubes, value relative to DMSO: 0.5105
[2]; 0.5 uM
  CMV-LACZ in Myotubes, value relative to DMSO: 0.9844
[2]; 1 uM
  CMV-LACZ in Myotubes, value relative to DMSO: 1.0570
[2]; 5 uM
  CMV-LACZ in Myotubes, value relative to DMSO: 0.8072
[2]; 10 uM
  CMV-LACZ in Myotubes, value relative to DMSO: 0.9927
[2]; 20 uM
  CMV-LACZ in Myotubes, value relative to DMSO: 0.8329
[2]; 40 uM
  CMV-LACZ in Myotubes, value relative to DMSO: 1.0847
[3]; 0.5 uM
  CMV-LACZ in Myoblasts, value relative to DMSO: 0.7656
[3]; 1 uM
  CMV-LACZ in Myoblasts, value relative to DMSO: 0.6431
[3]; 5 uM
  CMV-LACZ in Myoblasts, value relative to DMSO: 1.0533
[3]; 10 uM
  CMV-LACZ in Myoblasts, value relative to DMSO: 1.3214
[3]; 20 uM
  CMV-LACZ in Myoblasts, value relative to DMSO: 0.7222
[3]; 40 uM
  CMV-LACZ in Myoblasts, value relative to DMSO: 0.3322
[4]; 0.5 uM
  Burkin Assay in Myoblasts, value relative to DMSO: 1.007
[4]; 1 uM
  Burkin Assay in Myoblasts, value relative to DMSO: 0.9698
[4]; 5 uM
  Burkin Assay in Myoblasts, value relative to DMSO: 0.8762
[4]; 10 uM
  Burkin Assay in Myoblasts, value relative to DMSO: 0.7458
[4]; 20 uM
  Burkin Assay in Myoblasts, value relative to DMSO: 0.4873
[4]; 40 uM
  Burkin Assay in Myoblasts, value relative to DMSO: 0.2456

## O=C1Nc2ccccc2/C1=C/c1ccccc1F [MLS001202389-01]
[1]; 0.5 uM
  Burkin Assay in Myotubes, α7 integrin LacZ reporter signal relative to DMSO: 0.9181
[1]; 1 uM
  Burkin Assay in Myotubes, α7 integrin LacZ reporter signal relative to DMSO: 0.9393
[1]; 5 uM
  Burkin Assay in Myotubes, α7 integrin LacZ reporter signal relative to DMSO: 0.9936
[1]; 10 uM
  Burkin Assay in Myotubes, α7 integrin LacZ reporter signal relative to DMSO: 1.053
[1]; 20 uM
  Burkin Assay in Myotubes, α7 integrin LacZ reporter signal relative to DMSO: 0.6412
[1]; 40 uM
  Burkin Assay in Myotubes, α7 integrin LacZ reporter signal relative to DMSO: 0.5594
[2]; 0.5 uM
  CMV-LACZ in Myotubes, signal relative to DMSO: 1.1558
[2]; 1 uM
  CMV-LACZ in Myotubes, signal relative to DMSO: 1.1821
[2]; 5 uM
  CMV-LACZ in Myotubes, signal relative to DMSO: 1.0432
[2]; 10 uM
  CMV-LACZ in Myotubes, signal relative to DMSO: 1.1312
[2]; 20 uM
  CMV-LACZ in Myotubes, signal relative to DMSO: 1.0900
[2]; 40 uM
  CMV-LACZ in Myotubes, signal relative to DMSO: 0.9311
[3]; 0.5 uM
  CMV-LACZ in Myoblasts (β-galactosidase activity relative to DMSO): 1.0237
[3]; 1 uM
  CMV-LACZ in Myoblasts (β-galactosidase activity relative to DMSO): 1.1108
[3]; 5 uM
  CMV-LACZ in Myoblasts (β-galactosidase activity relative to DMSO): 1.0084
[3]; 10 uM
  CMV-LACZ in Myoblasts (β-galactosidase activity relative to DMSO): 0.8920
[3]; 20 uM
  CMV-LACZ in Myoblasts (β-galactosidase activity relative to DMSO): 0.6115
[3]; 40 uM
  CMV-LACZ in Myoblasts (β-galactosidase activity relative to DMSO): 0.5081
[4]; 0.5 uM
  Burkin Assay in Myoblasts, signal relative to DMSO: 0.9323
[4]; 1 uM
  Burkin Assay in Myoblasts, signal relative to DMSO: 0.9481
[4]; 5 uM
  Burkin Assay in Myoblasts, signal relative to DMSO: 1.009
[4]; 10 uM
  Burkin Assay in Myoblasts, signal relative to DMSO: 1.1004
[4]; 20 uM
  Burkin Assay in Myoblasts, signal relative to DMSO: 0.5816
[4]; 40 uM
  Burkin Assay in Myoblasts, signal relative to DMSO: 0.2556
